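These data come from cells grown in 96-well plates and exposed to compound for 48 hours at five concentrations. GI50 is the concentration that inhibits growth by half. TGI denotes the concentration required for complete inhibition of growth.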
How the values were obtained:
Assay in all cases: growth of human tumour cells (NCI), 48 h
[1] = test system: SK-MEL-2 melanoma
[2] = test system: MALME-3M melanoma
[3] = test system: HOP-62 NSCLC
[4] = test system: HT29 colon
[5] = test system: RPMI-8226 leukemia
[6] = test system: HCC-2998 colon
[7] = test system: M14 melanoma
[8] = test system: T-47D breast
[9] = test system: ACHN renal
[10] = test system: NCI/ADR-RES ovarian
[11] = test system: MDA-N
[12] = test system: SK-OV-3 ovarian
[13] = test system: SF-295 CNS
[14] = test system: SNB-19 CNS
[15] = test system: OVCAR-3 ovarian
[16] = test system: HCT-15 colon
[17] = test system: SF-268 CNS
[18] = test system: HL-60(TB) leukemia

Compound	TGI [1] [µM]	TGI [2] [µM]	TGI [3] [µM]	TGI [4] [µM]	TGI [5] [µM]	TGI [6] [µM]	TGI [7] [µM]	TGI [8] [µM]	TGI [9] [µM]	TGI [10] [µM]	TGI [11] [µM]	TGI [12] [µM]	TGI [13] [µM]	TGI [14] [µM]	TGI [15] [µM]	TGI [16] [µM]	TGI [17] [µM]	TGI [18] [µM]	GI50 [3] [µM]	GI50 [15] [µM]
CN(C)C(=S)N/N=C\C(=N/NC(=S)N(C)C)c1ccccc1	> 100	> 57.5	> 100	> 100	> 100	> 100	> 100	4.77	> 100	> 25.1	> 100	> 100	> 100	> 100	> 23.4	> 100	> 72.3			
Cc1ccc(S(=O)(=O)c2c(N)c3nccn3c3nc4ccccc4nc23)cc1	> 100	> 100	> 100		> 100	> 100	> 100		> 100			> 100		> 100	> 100	> 100	> 100	> 100		
COC(=O)C(/C(=N/N)C(=O)Nc1ccc(C)c(C)c1)c1nc2ccc(Cl)cc2[nH]c1=O (stereo unspecified)	> 100	> 100	> 100	> 100	> 100	> 100	> 100	> 100	> 100	> 100		> 100	> 100		> 100	> 100	> 100	> 100		
Cc1c(/C=N/NC(=O)c2ccccc2)c(=O)n(-c2ccccc2)n1C	> 100	> 100	> 100	> 100	> 100	> 100	> 100		> 100			> 100	> 100	> 100	> 100	> 100	> 100	> 100		
COc1cc2c(c(N)c1OC)C(=O)/C(=C/c1cc(C)c(O)c(C)c1)C2	> 95.4		> 60.2	> 100		> 100	> 100	> 100	> 100	> 100		> 100	> 55.6	> 100		> 100	> 100			
COc1nc(/C=N/NC(N)=S)nc(OC)n1	> 100	> 100		> 100	> 100	> 100	> 100		> 100			> 100	> 100	> 100	> 100		> 100	> 100		
CC1CC(=O)N2CCCNC2=C1C#N (stereo unspecified)	> 100	> 100	> 100	> 100	> 100	> 100	> 100	> 100		> 100	> 100	> 100	> 100	> 100	> 100	> 100	> 100			
CN(C)CCSC(=Nc1ccccc1)N1C=COC=C1	32.1	> 81.8	> 100	> 100	> 100	50.5	36.2	74.4	> 100		45.4	> 100	> 100	> 100	> 81.8	47.4	42.5	> 100		
Cc1ccc(-c2c(C#N)c(-c3ccc([N+](=O)[O-])cc3)c(C#N)c(=O)n2NS(=O)(=O)c2ccc(C)cc2)cc1	> 100	> 100	> 100	> 100	47	> 100	> 100		> 100	> 100	> 100	> 100	> 100	> 100	> 100	> 100	> 100	84.3		
Cc1ccccc1N=Cc1ccc(N(CCC#N)S(=O)(=O)c2ccccc2)cc1	> 100	> 100	> 100	> 100	> 100	> 100	> 100		> 100			> 100	> 100	> 100	> 100	> 100	> 100	> 100		
CCCCCCNC(=O)c1cc(C#Cc2cc(OC)ccc2OC)ccc1OC	> 100		> 100	> 100	> 100	6.25	> 100	11	> 100	> 100	> 100	> 100	> 100	> 100	> 100	> 100	> 100		11.8	> 100
O=c1n(CCCN2CCN(c3cccc(Cl)c3)CC2)nc2n1-c1ccc3ccccc3c1SC2	> 100		> 100	> 100	> 100					> 100	> 100	> 100	> 100	> 100	> 100	> 100		> 100		
CC(C)=CCC/C(C)=C/CC/C(C)=C/CC/C=C(\C)CC/C=C(\C)CCC1SC1(C)C (stereo unspecified)	> 100	> 100	> 100	> 100	> 100	> 100	> 100		> 100			> 100	> 100	> 100		> 100	> 100	> 100		
C=C1C(=O)OC2C[C@H](C)C3CC(=O)C(C)=C3CC12 (stereo partly specified)	29	25.3	> 54.4	31	21.9	29.2	27.4		25.5			> 100	> 62.3	> 100	26.2	25.9	38.7	8.42		
CC(N)C(=O)c1ccc(O)cc1 (stereo unspecified)	> 100	> 100	> 100	> 100	> 100	> 100	> 100		> 100			> 100	> 100	> 100	> 100	> 100	> 100	> 100		
